One may read the MIC50 as an inhibitory concentration at the 50% level, which refers to growth in some studies and to a panel of isolates in others. A higher MIC50 goes with weaker potency. As usually defined, the pIC50 is −log10 of the IC50, conventionally taken in molar units. High values mean a low IC50, low ones a high IC50.

2 molecules from patent US10758513B2, “Modulators of mitochondrial protein import” (THE REGENTS OF THE UNIVERSITY OF CALIFORNIA, priority 2011, dated 2020) can be followed below.

pIC50: −log10 of the molar value. Converted amounts (≈) assume the structure as drawn.

The subject of series [1] is tim9-3 mutant. The experiment in a line: Yeast growth inhibition (MIC50), tim9-3 mutant. The class given is cell-based. As to conditions: Saccharomyces cerevisiae; disrupted for prd5 and snq2.
Series [2] has as its system tim10-1 tim9S suppressor strain. As to the kind of experiment: Yeast growth inhibition (MIC50), tim10-1 tim9S suppressor strain. The class given is cell-based. To be noted: Saccharomyces cerevisiae; disrupted for prd5 and snq2.
Series [3] addresses Erv2 (Saccharomyces cerevisiae, UniProt Q12284). The experiment in a line: In vitro Erv2 activity, Amplex Red-HRP assay. In kind it is biochemical, yeast.
The target in series [4] is T1, Erv1 (Saccharomyces cerevisiae, UniProt P27882).
T1 construct: made in house
T1 sequence (P27882 1-189): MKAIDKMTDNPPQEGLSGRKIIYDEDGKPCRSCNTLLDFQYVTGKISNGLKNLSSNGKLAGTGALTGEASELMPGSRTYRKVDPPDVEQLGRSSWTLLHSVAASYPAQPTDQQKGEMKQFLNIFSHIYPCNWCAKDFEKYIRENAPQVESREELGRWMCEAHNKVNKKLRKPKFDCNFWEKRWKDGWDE
The experiment in a line: In vitro Erv1 oxidase activity, Amplex Red-HRP assay. In kind it is biochemical, yeast.
Protocol: The primary chemical screen used fresh recombinant Erv1 (in buffer 30 mM Hepes, pH 7.4, 100 mM NaCl, 1 mM EDTA) at a concentration of 10 μM, which was expressed as described previously. […] A Biomek FX (Beckman Coulter) was used to pin transfer 0.5 μl of compound from 1 mM stock or DMSO to respective wells. Approximate screening
concentration was 12.5 μM. After completed compound transfer, all plates were incubated at 25° C. in a humidified incubator for 1 hour. A Titertek multidrop was used to dispense 15 μl of Amplex Red-horseradish peroxidase (HRP) (Sigma) mix into all wells of the 384-well plate. The final concentration of Amplex Red and HRP were 46 μM and 0.092 U/ml, respectively. The Amplex Red-HRP solution was shielded from light during the entire experiment. The plates were incubated for an additional 10 min and then 15 μl of the substrate DTT (20 μM) was added to initiate the reduction of 02 to H2O2. […] Plates were then read at an endpoint using an excitation wavelength of 545 nm and an emission wavelength of 590 nm. […]
H2O2 production was measured using a standard fluorometric assay with Amplex Red and horseradish peroxidase (HRP). […] Fluorescence intensity was measured and reactions that were inhibited by more than 50% were picked as potential Erv1 inhibitors and selected for secondary analysis.

The target of series [5] is T1, Erv1. As to the kind of experiment: Reconstitution of substrate oxidation with Mia40 and Erv1. The class given is biochemical, yeast. To be noted: after three hours; DMSO control approximately 80%. As for the experimental part: (A) Mitochondria from a strain expressing C-terminal histidine-tagged Erv1 were incubated with 50 μM MitoBloCK-6 or 1% DMSO for 30 min at 25° C. followed by solubilization in 1% digitonin buffer. As a control, 100 μg of extract was withdrawn (T), and 500 μg lysate was incubated with Ni+^2-agarose beads. The beads were washed and bound proteins (B) were eluted with SDS-PAGE sample buffer. To test effectiveness of binding, 100 μg of the unbound protein fraction (S) was also included. Proteins were analyzed by immunoblotting with polyclonal antibodies against Mia40, Erv1, and cyt c. […] Oxidized and reduced Tim13 were detected by non-reducing SDS-PAGE and immunoblotting with antibodies against Tim13.
Reconstitution studies with reduced Tim13 were performed as described previously (Tienson et al., 2009). […] H2O2 levels in the reconstitution assays were measured using the Amplex Red Hydrogen Peroxide/Peroxidase Assay kit according to the manufacturer's protocol (Dabir et al., 2007) (Invitrogen). […] The Erv1 or ALR-catalyzed reduction of 02 to H2O2 was measured by a FlexStation plate reader (Molecular Devices) controlled via the SoftMax Pro software package (Molecular Devices) for data acquisition. […]

The subject of series [6] is HEK293 cells. As to the kind of experiment: Treatment of HEK293 cells with MitoBloCK-6. To be noted: unpublished data. In kind it is cell-based. How it is done: For microscopy experiments, HeLa or HEK293 cells were transiently transfected with Su9-EGFP (Lipofectamine, Invitrogen) at 80% confluency. 12 hours post transfection, cells were co-labeled with Mitotracker red CMXRos (Invitrogen) and visualized with a microscope (Axiovert 200M Carl Zeiss) using a Plan-Fluor 63× oil objective. Images were acquired at room temperature with a charge-coupled device camera (ORCA ER, Hamamatsu Photonics) controlled by Axiovision software (Carl Zeiss). Image files were processed by Photoshop software (Adobe). […] For cyt c release assays, a cell fractionation kit (MitoSciences) was used. Briefly, HeLa or HEK293 cells were grown in 10 cm^2 dishes to 80% confluency and then cells were treated with DMSO or MitoBloCK-6 in complete medium for 12-16 h. […] Cells were fractionated to obtain cytosolic and mitochondrial fractions; 100 μg of each fraction was analyzed by SDS-PAGE. Blots were probed with ApoTrack cyt c apoptosis antibody cocktail (MitoSciences).

A short description of series [7]: Stability of MitoBloCK-6 in screening buffer by LC-MS. In kind it is physicochemical. To be noted: pH 3.4, 6.5, 7.4; room temperature, 1 hour. As for the experimental part:
MitoBloCK-6 at a final concentration of 3 mM was incubated with screening buffer (30 mM Hepes, 100 mM NaCl, 1 mM EDTA) at pH 3.4, 6.5, and 7.4 in a reaction volume of 100 μl at room temperature for 1 hour. The sample was injected into the LC-MS and retention was monitored. As a control, 20 mM MitoBloCK-6 in 1% DMSO was also analyzed.
LC-MS experiments were carried out on a Waters Acquity UPLC connected to a Waters LCT-Premier XE Time of Flight Instrument controlled by MassLynx 4.1 software. The mass spectrometer was equipped with a Multi-Mode Source operated in the electrospray mode. Briefly, samples of MitoBloCK-6, ES-1, and ES-2 were separated using an Acquity BEH C18 1.7 um column (2.1×50 mm, Waters) and were eluted with a gradient of 0.5 mL/min water/acetonitrile with 2, 80, and 95% acetonitrile at 0.5, 2.5 and 3.5 min, respectively. Mass spectra were recorded from 80 to 2000 Daltons. All solvents were LC-MS/MS Grade and purchased from Fisher Scientific.

Sequence of Erv2 (Q12284 whole entry): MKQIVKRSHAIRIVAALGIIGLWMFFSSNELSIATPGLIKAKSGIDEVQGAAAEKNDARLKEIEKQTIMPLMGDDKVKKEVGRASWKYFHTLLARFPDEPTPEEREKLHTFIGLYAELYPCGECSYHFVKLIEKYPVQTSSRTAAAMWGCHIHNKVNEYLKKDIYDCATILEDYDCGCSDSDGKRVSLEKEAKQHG

As for `NC(=S)N/N=C/c1c(O)c(Br)cc2oc3c(c12)CCCC3` [MitoBloCK-1], the MIC50 was 11 µM (≈ 4.05 µg/mL) in series [1] and 10 µM (≈ 3.68 µg/mL) in series [2].

Take `Oc1c(Cl)cc(Cl)cc1/C=N/c1ccc(Nc2ccccc2)cc1` [MitoBloCK-6]: the pIC50 in series [3] was 5.85; in series [4], 6.05. Also, the Tim13 oxidized in series [5] stood at 15%. Moreover, in series [6], the “morphology and viability in HEK293 cells” value is given as “showed similar results”. In addition, the “stability by LC-MS” value in series [7] is “stable over this pH range”.
